# From patent US7579375B2, “Branched carboxylic acid compound and use thereof” (Ono Pharmaceutical Co., Ltd., priority 2003, dated 2009)
# Columns and labels:
# S100β = test: Intracellular S100β content in secondary cultured astrocytes (ELISA); type: cell-based, rat; conditions: astrocytes treated 2 weeks, control group 2177.0±147.74
# From the text: The 1 to 2 day-old neonatal Wistar rats (10 animals) were decapitated and sterilized their heads in ethanol. Ethanol and blood was removed in ice-cold DMEM medium (purchased from Sigma). Meningis was peeled and cortex of cerebrum was removed in ice-cold DMEM medium (purchased from Sigma) under the stereomicroscope. The cortex of cerebrum was minced with frosted glass-slides (purchased from Matsunami) to suspension in ice-cold DMEM medium (purchased from Sigma). Cell suspension was filtrated with 70 micrometer-diameter filter (falcon2350). The filtrate was centrifuged at 100×g for 3 minutes, and the pellet was re-suspended in 10% FCS (fetal calf serum)-containing DMEM medium. The washing procedure using 10% FCS-DMEM medium was repeated 3 times and cells were re-suspended in 10% FCS-DMEM medium. The obtained cell suspension was plated in 75 cm^2 flask (falcon3024) (one flask (containing 12 ml of medium) containing cells obtained from one neonatal rat), and cultured at 37° C. under an atmosphere of 5% CO2, 95% air (0 day of culture). After 2 days of culture (2 days of culture), culture media was aspirated and flask was shaken by hands to remove an unadhesive cells. The flask was washed with DMEM medium and the suspended cells ware removed. This procedure was repeated 3 times till the unadhesive cells were removed completely confirmed by microscope. Then, 10% FCS-DMEM medium was added to flask (12 ml/flask) and cultured at 37° C. under an atmosphere of 5% CO2, 95% air (medium was changed in 12 days after onset of culture).
# Primary culture of Astrocytes (19 days after onset of culture, 3 flasks) was purified by the same procedure as used in cell purification in primary culture. Then, the adhesive cells were treated with 0.05% Trypsin-1 mmol/L EDTA at 37° C. till the cells were detached. The cells were suspended in 10% FCS-DMEM medium and transferred to microtube. After centrifugation at 100×g for 3 minutes, the pellet was resuspended in 10% FCS-DMEM medium. A portion of cell suspension was mixed with an equal volume of Trypan-Blue solution. The number of living cells was measured by using the Burker-Turk counting chamber under the phase-contrast microscope. Cells were suspended in 10% FCS-DMEM medium at the cell density of 2×10^5 cells/ml and cultured in 48 well culture plate (6 plates, 0.5 ml/well) at 37° C. under an atmosphere of 5% CO2, 95% air. After 24 hour cultivation, culture medium was changed to the test-compound containing medium (0.5 ml/well), and the cultivation was conducted for 2 weeks at 37° C. under an atmosphere of 5% CO2, 95% air. The change of medium was conducted on 27 days after onset of cultivation. […]
# 6 weeks-old male rat = test: Long-term repetitive oral dosing, general side effect; type: in vivo; conditions: orally once daily, 250 mg/kg per once
# Procedure: Each test compounds were dissolved with an aqueous solution of trisodium phosphate, and diluted with a water for injection. The obtained drug solution was orally administrated once daily to 6 weeks-old male rat by long-term repetitive dosing at a dose of 250 mg/kg per once.
Structure (SMILES),intracellular content of S100β (S100β; 100 micromol/L-treated group) [ng/mg unit protein],general side effect (6 weeks-old male rat),"intracellular content of S100β (S100β; 30 micromol/L-treated group (n=4), P<0.001 Dunnett test) [ng/mg unit protein]"
"CCC[C@H](CCCC[C@@H](C)O)C(=O)O [Example 1(2), (2R,7R)-7-hydroxy-2-propyloctanoic acid]",1422.5±74.70,,
"CCC[C@H](CCCCCCO)C(=O)O [Example 1(4), (2R)-8-hydroxy-2-propyloctanoic acid]",1192.8±58.78,does not show a general side effect,
"CCC[C@H](CCCCC(C)=O)C(=O)O [Example 1(1), (2R)-7-oxo-2-propyloctanoic acid]",1053.5±39.57,does not show a general side effect,1489.0±37.84
